According to patent US11795195B2, “Antibody-drug conjugates including hemiasterlin derivative” (Sumitomo Pharma Co., Ltd., priority 2017, dated 2023):

Columns and labels:
[1] = Membrane Permeability Test, parallel artificial membrane permeability assay (PAMPA); format: in vitro ADME; details: pH 7.4, pH7.4, 37° C., read-out: Pe (pH7.4)
Protocol: By the parallel artificial membrane permeability assay (PAMPA), the membrane permeability of compounds of Examples was examined as follows: To the donor plate, System solution (pION inc.) and GIT Lipid-0 (pION inc.) were added in an amount of 200 μL and 4 μL for each well, respectively. To the acceptor plate, Acceptor Sink Buffer (pION inc.) was added in an amount of 200 μL. Both plates were superposed and incubated at 37° C. for 4 hours, and then, UVs in the solutions on the side of acceptor and on the side of donor were measured with an UV plate reader (190 to 500 nm). Compounds with poor UV absorption were measured by LC-MS. The permeability coefficient Pe (10^−6 cm/sec) of the drug was calculated by the following formula.
[formula] • ra=(VD/VA)Pa^(A-D)/Pa^(D-A)=rVPe^(A-D)/Pa^(D-A) • rV=(VD/VA) • VD=volume of doner well • VA=volume of acceptor well • t=permeation time • τ^SS=steady state time • R=retention • CD=CA=concentration in donor and acceptor well

Karpas-299 cells = test: Cellular Toxicity Test (1), CellTiter-Glo cell viability; format: cell-based, human; details: Homo sapiens, 96 h, cultured 4 days, cell viability
Protocol: Karpas-299 cells (European Collection of Authenticated Cell Cultures, hereinafter, ECACC), which are human lymphoma cell lines, were cultured in RPMI 1640 (GIBCO) containing 10% fetal bovine serum (MP Biomedicals) (hereinafter, referred to as the “culture medium”). Cells were prepared to be 2×10^6 cells/mL in the culture medium, and were added to a 96 well microplate for cell culturing in an amount of 50 μL for each well. Compounds of Examples or Comparative Example compound 4 times diluted with the culture medium in 8 stages were added to the microplate in an amount of 50 μL for each well. These were cultured at 37 degree under 5% CO2 for 4 days. After culturing, the microplate was taken out from the incubator, and was left at rest at room temperature for 10 minutes. To each well, 50 μL of CellTiter-Glo Luminescent Cell Viability Assay (Promega) was added, and the resultant mixture was stirred. This mixture was incubated at a dark place for 20 minutes. Using a microplate luminometer, luminescence at each well was measured, thereby calculating the cell viability. In addition, from the value of cell viability, the IC50 value was calculated.
The IC50 value was calculated by the following formula: IC50 (nM)=antilog(LOG10(a/b)×(e−d)/(c−d)+LOG10b) a: concentration a of test substance b: concentration b of test substance c: cell viability upon adding test substance with concentration a d: cell viability upon adding test substance with concentration b e: intermediate value between maximum and minimum among cell viabilities upon adding test substances with different concentrations (a and b are concentrations crossing the cell viability e, and a>b is indicated).
The cell viability at each concentration was calculated by the following formula: Cell Viability (%)=a′/b′×100 a′: mean value of luminescence amount of wells to which test substance was added (n=6) b′: mean value of luminescence amount of wells to which test substance was not added (n=6) (n represents the number of evaluations performed per test substance concentration).

Row | SMILES | Papp at 4 h [1] [×10⁻⁶ cm/s] | IC50 (Karpas-299 cells) [nM]
1 | CN[C@H](C(=O)N[C@H](C(=O)N(C)[C@H](/C=C(\C)C(=O)N[C@@H](CC(=O)O)C(=O)NCCN1C(=O)C=CC1=O)C(C)C)C(C)(C)C)C(C)(C)c1cn(C)c2ccccc12 [Example M21] | < 0.1 | 226
2 | CN[C@H](C(=O)N[C@H](C(=O)N(C)[C@H](/C=C(\C)C(=O)N[C@@H](CCC(=O)O)C(=O)NCCN1C(=O)C=CC1=O)C(C)C)C(C)(C)C)C(C)(C)c1cn(C)c2ccccc12 [Example M22] | < 0.1 | 154
3 | CN[C@H](C(=O)N[C@H](C(=O)N(C)[C@H](/C=C(\C)C(=O)N[C@H](CCC(=O)NCCCN1C(=O)C=CC1=O)C(=O)O)C(C)C)C(C)(C)C)C(C)(C)c1cn(C)c2ccccc12 [Example M23] | < 0.1 | 49.7
4 | CNC(C(=O)N[C@H](C(=O)N(C)[C@H](/C=C(\C)C(=O)N[C@H](CCC(=O)NCCN1C(=O)C=CC1=O)C(=O)O)C(C)C)C(C)(C)C)C(C)(C)c1ccc(O)cc1 (stereo partly shown) [Example M34] | 2.7 | 8
5 | CN[C@H](C(=O)N[C@H](C(=O)N(C)[C@H](/C=C(\C)C(=O)N[C@H](CCC(=O)NCCN1C(=O)C=CC1=O)C(=O)O)C(C)C)C(C)(C)C)C(C)(C)c1cccc(-c2ccccc2)c1 [Example M41] | 0.8 | 26.3
6 | CN[C@H](C(=O)N[C@H](C(=O)N(C)[C@H](/C=C(\C)C(=O)N[C@H](CCC(=O)NCCN1C(=O)C=CC1=O)C(=O)O)C(C)C)C(C)(C)C)C(C)(C)c1cccc(C(F)(F)F)c1 [Example M31] | 1 | 197
7 | CN[C@H](C(=O)N[C@H](C(=O)N(C)[C@H](/C=C(\C)C(=O)N[C@@H](CCC(=O)NCCN1C(=O)C=CC1=O)C(=O)O)C(C)C)C(C)(C)C)C(C)(C)c1ccccc1 [Example M11] | < 0.1 | > 1000
8 | CNC(C(=O)N[C@H](C(=O)N(C)[C@H](/C=C(\C)C(=O)N[C@H](CCC(=O)O)C(=O)O)C(C)C)C(C)(C)C)C(C)(C)c1ccc(C(=O)NCCN2C(=O)C=CC2=O)cc1 (stereo partly drawn) [Example M47, ((4S,E)-4-((2 S)-2-(3-(4-((2-(2,5-Dioxo-2,5-dihydro-1H-pyrrol-1-yl)ethyl)carbamoyl)phenyl)-3-methyl-2-(methylamino)butanamido)-N,3,3-trimethylbutanamido)-2,5-dimethylhex-2-enoyl)-D-glutamic Acid] | 1.2 | > 1000
9 | CN[C@H](C(=O)N[C@H](C(=O)N(C)[C@H](/C=C(\C)C(=O)N[C@H](CCC(=O)NCCN1C(=O)C=CC1=O)C(=O)O)C(C)C)C(C)(C)C)C(C)(C)c1cccs1 [Example M39] | < 0.1 | 379
10 | CN[C@H](C(=O)N[C@H](C(=O)N(C)[C@H](/C=C(\C)C(=O)N[C@H](CCC(=O)NCCN1C(=O)C=CC1=O)C(=O)O)C(C)C)C(C)(C)C)C(C)(C)C1CCCCC1 [Example M33] | < 0.1 | 228
11 | CN[C@H](C(=O)N[C@H](C(=O)N(C)[C@H](/C=C(\C)C(=O)N[C@H](CCC(=O)NCCCN1C(=O)C=CC1=O)C(=O)O)C(C)C)C(C)(C)C)C(C)(C)c1ccccc1 [Example M16] | – | 573
12 | CN[C@H](C(=O)N[C@H](C(=O)N(C)[C@H](/C=C(\C)C(=O)N[C@H](CCC(=O)NCCCCN1C(=O)C=CC1=O)C(=O)O)C(C)C)C(C)(C)C)C(C)(C)c1ccccc1 [Example M17] | < 0.1 | 35
13 | CN[C@H](C(=O)N[C@H](C(=O)N(C)[C@H](/C=C(\C)C(=O)N[C@H](CCC(=O)NCCN1C(=O)C=CC1=O)C(=O)O)C(C)C)C(C)(C)C)C(C)(C)c1cccc(OC)c1 [Example M37] | < 0.1 | 403
14 | CN[C@H](C(=O)N[C@H](C(=O)N(C)[C@H](/C=C(\C)C(=O)N[C@@H](CC(=O)O)C(=O)NCCN1C(=O)C=CC1=O)C(C)C)C(C)(C)C)C(C)(C)c1ccccc1 [Example M14] | – | > 1000
15 | CN[C@H](C(=O)N[C@H](C(=O)N(C)[C@H](/C=C(\C)C(=O)N[C@H](CCC(=O)NCCN1C(=O)C=CC1=O)C(=O)O)C(C)C)C(C)(C)C)C(C)(C)c1cccc(C)c1 [Example M42] | 4.9 | 91.1
16 | CN[C@H](C(=O)N[C@H](C(=O)N(C)[C@H](/C=C(\C)C(=O)N[C@H](CCC(=O)NCCN1C(=O)C=CC1=O)C(=O)O)C(C)C)C(C)(C)C)C(C)(C)c1cccc(F)c1 [Example M32] | 0.6 | 616
17 | CN[C@H](C(=O)N[C@H](C(=O)N(C)[C@H](/C=C(\C)C(=O)N[C@H](CCC(=O)N[C@@H](CCCCNC(=O)CCCCCN1C(=O)C=CC1=O)C(=O)O)C(=O)O)C(C)C)C(C)(C)C)C(C)(C)c1cn(C)c2ccccc12 [Example M2, N-{(2E,4S)-2,5-Dimethyl-4-[methyl(N,β,β,1-tetramethyl-L-tryptophyl-3-methyl-L-valyl)amino]hex-2-enoyl}-D-γ-glutamyl-N^6-[6-(2,5-dioxo-2,5-dihydro-1H-pyrrol-1-yl)hexanoyl]-L-lysine] | < 0.1 | 780
18 | CN[C@H](C(=O)N[C@H](C(=O)N(C)[C@H](/C=C(\C)C(=O)N[C@H](CC(=O)NCCN1C(=O)C=CC1=O)C(=O)O)C(C)C)C(C)(C)C)C(C)(C)c1cn(C)c2ccccc12 [Example M20] | < 0.1 | 406
19 | C/C(=C\[C@H](C(C)C)N(C)C(=O)[C@@H](NC(=O)[C@@H](N(C)C)C(C)(C)c1ccccc1)C(C)(C)C)C(=O)N[C@H](CCC(=O)NCCN1C(=O)C=CC1=O)C(=O)O [Example M49, N^2—((S,E)-4-((S)-2-((S)-2-(Dimethylamino)-3-methyl-3-phenylbutanamido)-N,3,3-trimethylbutanamido)-2,5-dimethylhex-2-enoyl)-N^5-(2-(2,5-dioxo-2,5-dihydro-1H-pyrrolo-1-yl)ethyl)-D-glutamine] | – | > 1000
20 | CN[C@H](C(=O)N[C@H](C(=O)N(C)[C@H](/C=C(\C)C(=O)N[C@H](CC(=O)O)C(=O)NCCN1C(=O)C=CC1=O)C(C)C)C(C)(C)C)C(C)(C)c1cn(C)c2ccccc12 [Example M24] | < 0.1 | 166
21 | CN[C@H](C(=O)N[C@H](C(=O)N(C)[C@H](/C=C(\C)C(=O)N[C@@H](CC(=O)NCCN1C(=O)C=CC1=O)C(=O)O)C(C)C)C(C)(C)C)C(C)(C)c1ccccc1 [Example M10] | < 0.1 | 544
22 | C/C(=C\[C@H](C(C)C)N(C)C(=O)[C@@H](NC(=O)[C@H]1CCCCN1C(C)C)C(C)(C)C)C(=O)N[C@H](CCC(=O)NCCN1C(=O)C=CC1=O)C(=O)O [Example M43] | 2 | 3.8
23 | CNC(C(=O)N[C@H](C(=O)N(C)[C@H](/C=C(\C)C(=O)N[C@H](CCC(=O)O)C(=O)O)C(C)C)C(C)(C)C)C(C)(C)c1ccc(OC(=O)CCN2C(=O)C=CC2=O)cc1 (stereo partly shown) [Example M30] | < 0.1 | –
24 | CN[C@H](C(=O)N[C@H](C(=O)N(C)[C@H](/C=C(\C)C(=O)N[C@H](CCC(=O)NCCN1C(=O)C=CC1=O)C(=O)O)C(C)C)C(C)(C)C)C(C)(C)c1cccc(C#N)c1 [Example M35] | 0.8 | 8.6
25 | CN[C@H](C(=O)N[C@H](C(=O)N(C)[C@H](/C=C(\C)C(=O)N[C@H](CCC(=O)O)C(=O)NCCN1C(=O)C=CC1=O)C(C)C)C(C)(C)C)C(C)(C)c1ccccc1 [Example M15] | – | > 1000
26 | CN[C@H](C(=O)N[C@H](C(=O)N(C)[C@H](/C=C(\C)C(=O)N[C@@H](CCC(=O)O)C(=O)NCCN1C(=O)C=CC1=O)C(C)C)C(C)(C)C)C(C)(C)c1ccccc1 [Example M12] | < 0.1 | 29.8
27 | CN[C@H](C(=O)N[C@H](C(=O)N(C)[C@H](/C=C(\C)C(=O)N[C@@H](CC(=O)NCCN1C(=O)C=CC1=O)C(=O)O)C(C)C)C(C)(C)C)C(C)(C)c1cn(C)c2ccccc12 [Example M19] | < 0.1 | 169
28 | CN[C@H](C(=O)N[C@H](C(=O)N(C)[C@H](/C=C(\C)C(=O)N[C@H](CC(=O)NCCN1C(=O)C=CC1=O)C(=O)O)C(C)C)C(C)(C)C)C(C)(C)c1ccccc1 [Example M9] | < 0.1 | 576
29 | CN[C@H](C(=O)N[C@H](C(=O)N(C)[C@H](/C=C(\C)C(=O)N[C@H](CC(=O)O)C(=O)NCCN1C(=O)C=CC1=O)C(C)C)C(C)(C)C)C(C)(C)c1ccccc1 [Example M13] | – | 999
